Reference: patent US20090176696A1, “Methods And Compositions For Modulating An Immune Response” (priority 2006, published 2009)
Entries after “also recorded” stand apart in the source; their conditions may differ.

Assays:
[1] = test system: KLH-specific T cell and antibody responses; assay: TCT injection 6 hours before immunisation with KLH or KLH with alum; ex vivo spleen and lymph node responses and antibody titres; type: in vivo, BALB/c mice
Method: Cohorts of BALB/c mice were injected sub-cutaneously (s.c.) into the flank with PBS or TCT alone, and then immunised sub-cutaneously with KLH or KLH with alum 6 hours later. The adaptive immune response was assessed 14 days later by stimulating spleen and local inguinal lymph node cells with antigen ex vivo. Spleen (FIG. 6A) and lymph node (FIG. 6B) cell suspensions were cultured in the presence of various concentrations of KLH (2, 10, 50 μg/ml) and PMA/anti-CD3 or medium were used as positive and negative controls respectively. Supernatants were collected 72 hours later, fresh medium was added to the wells and cells were incubated overnight. At day 4, 2 μCi of ^3H thymidine was added to each well. Plates were incubated for a further 6 hours, and ^3H incorporation was determined.
In addition, supernatants were tested for IFN-gamma, IL-10, IL-4 and IL-5 by ELISA (spleen—FIG. 7 and lymph nodes—FIG. 8). KLH-specific antibody titres were also determined by ELISA (FIG. 9).

[2] = test system: Graft-versus-host disease (GVHD); assay: Parent-to-F1 hybrid graft-versus-host disease (GVHD) model; type: in vivo, BALB/c×C57Bl/6 F1 hybrid mice; details: TCT 10 μg/mouse s.c. footpad 2 hours prior to induction; day 7
Source text: Graft-versus-host disease (GVHD) is a major life-threatening complication of bone marrow transplantation, where T cells from the donor graft attack host cells leading to a condition that is only treatable using potent immunosuppressive drugs. It is possible to examine the potential of therapies for the prevention or treatment of GVHD in humans by testing their efficacy using a simple GVHD model in mice. The parent-to-F1 hybrid GVHD murine model involves the transfer of parental lymphocytes into non-conditioned F1 hybrid mice. Using this strain combination the host T cells cannot actively resist the donor cells.
GVHD was induced by transfer of 0.5×10^7 spleen cells from donor C57BL/6 mice into the footpads of BALB/c×C57Bl/6 F1 hybrid mice. Recipient mice were injected s.c into the footpad with PBS or TCT (10 μg/mouse) 2 hours prior to induction of GVHD. After 7 days, the popliteal lymph nodes were removed, weighed and cell numbers were recorded.

[3] = test system: BMDC with CD4+ T cells from OVA TCR transgenic mice; assay: TCT pre-treated BMDC cultured with OVA and CD4+ T cells from OVA TCR Tg mice; cytokines by ELISA; type: cell-based; details: DC pre-treated with TCT 10 μg/ml for 2 hours; supernatant after 4 days
Method: Dendritic cells act as antigen presenting cells and also serve to direct the induction of distinct T cell responses. Therefore, we examined the influence of TCT on dendritic cells and their ability to promote T cell responses in vitro. Bone marrow-derived dendritic cells DC (BMDC) were cultured with CD4^+ T cells (4×10^5) from OVA T cell receptor (TCR) transgenic (Tg) mice. BMDC were pre-treated with TCT (10 μg/ml) or medium only for 2 hours prior to the addition of antigen (OVA 0.2-5 μg/ml) and CD4^+ T cells purified from the spleens of OVA TCR Tg mice. OVA-specific cytokine production was measured in supernatant taken after 4 days by ELISA.

[4] = test system: Experimental autoimmune encephalomyelitis (EAE); assay: Experimental autoimmune encephalomyelitis (EAE) induced with MOG peptide 35-55 in CFA; type: in vivo, C57BL/6 mice
Method: EAE was induced in C57BL/6 mice by subcutaneous immunisation with 150 μg MOG peptide 35-55 emulsified in CFA supplemented with 5 mg/ml of killed Mycobacterium tuberculosis. Mice were injected intraperitoneally (i.p) with 500 ng of pertussis toxin (PT) on days 0 and 2. Mice were injected with either PBS or TCT (10 μg/mouse) s.c in the flank on day 1 post EAE induction and every 3-4 days thereafter (FIG. 15). Mice were observed daily for signs of clinical disease. Disease severity was recorded as follows: grade 0, normal; grade 1, limp tail; grade 2, wobbly gait; grade 3, hind limb weakness; grade 4, hind limb paralysis and grade 5, tetraparalysis/death.

[5] = test system: Bone marrow-derived dendritic cells (BMDCs); assay: Cytokine production (ELISA) by BMDCs pre-treated with TCT, then stimulated with TLR agonists; type: cell-based, BALB/c mice
Method: Bone marrow-derived dendritic cells (BMDCs) from BALB/c mice were pre-treated with TCT (10 μg/ml) for 1, 6 and 12 hours before being stimulated with a range of concentrations of the TLR2 agonist, Pam-3Csk (10, 100, 1000 ng/ml), the TLR4 agonist, B. pertussis LPS (100, 1000, 10,000 pg/ml) and the TLR9 agonist, CpG (10, 100, 1000 ng/ml) for a further 12 hours. The concentration range chosen for each TLR agonist was based on preliminary experiments. Cytokine and chemokine concentrations were evaluated by ELISA.

[6] = TCT 6 hours before KLH and alum
[7] = TCT 6 hours before KLH only or KLH and alum
[8] = TCT 6 hours before alum adsorbed KLH, day 14
[9] = TCT 6 hours before immunisation KLH
[10] = TCT 10 μg/ml for 1, 6, 12 hours, Pam-3Csk 10, 100, 1000 ng/ml for 12 hours
[11] = TCT 10 μg/ml pre-treatment (particularly 1 hour), Pam-3Csk, B. pertussis LPS, CpG for 12 hours

`CC(=O)NC1C(OC2C3COC(O3)C(NC(C)=O)C2OC(C)C(=O)NC(C)C(=O)NC(CCC(=O)NC(CCCC(N)C(=O)NC(C)C(=O)O)C(=O)O)C(=O)O)OC(CO)C(O)C1O` (stereo not drawn) [TCT, N-acetylglucosaminyl-1,6-anhydro-N-acetylmuramylalanyl-γ-glutamyldiaminopimelylalanine] was tested, and the “IFN-gamma production, spleen cells” value [1, 6] was “reduced”, the “IL-4 production, spleen cells” value [1, 6] was “reduced” and the “IL-5 production, spleen cells” value [1, 6] was “reduced”. For the same molecule, the “KLH-specific IL-10 production by lymph node cells” value [1, 6] was “severely impaired; also recorded: attenuated”, the “KLH-specific IL-10 production by spleen cells” value ([1]; TCT 6 hours before KLH and alum, p<0.001) was “significant reduction” and the “antigen-specific IgG1 titres” value [1, 7] was “no significant effect”. The “antigen-specific IgG2a titres” value [1, 7] was “no significant effect”, the “total KLH-specific IgG production” value [1, 7] was “no significant effect” and the “proliferation response to KLH, lymph node cells” value [1, 8] was “reduction”. For the same molecule, the “proliferation response to KLH, spleen cells” value [1, 8] was “reduction”, the “Antigen-specific IL-5 production, lymph node cells” value [1, 9] was “reduced” and the “antigen-specific IL-4 production, lymph node cells” value [1, 9] was “reduced”. For the same molecule, the “IFN-gamma production, spleen cells” value ([1]; TCT before immunisation with KLH and PBS) was “reduced”, the “proliferation response, spleen cells” value ([1]; mice immunised with KLH and PBS) was “reduced” and the “antigen-specific IFN-gamma, lymph node cells” value ([1]; mice immunised with KLH and alum) was “abrogated”. For the same molecule, the “total cells counts in the lymph node of the recipient mice” value [2] was “significantly reduced”, the “weight of the lymph node of the recipient mice” value [2] was “significantly reduced” and the “OVA-specific IFN-γ production” value [3] was “did not affect”. For the same molecule, the “OVA-specific IL-4 production” value [3] was “significantly reduced”, the “OVA-specific IL-5 production” value [3] was “significantly reduced” and the “OVA-specific IL-13 production” value [3] was “significantly reduced”. For the same molecule, the “first clinical signs of disease post induction” value ([4]; TCT 10 μg/mouse s.c. day 1 and every 3-4 days, untreated mice 12 days) was 18 days, the severity of disease ([4]; TCT 10 μg/mouse s.c., versus untreated control mice) was “lower than that observed in the untreated control mice” and the “IL-10 production by B. pertussis LPS” value ([5]; LPS 10,000 pg/ml, TCT pre-treatment 1 and 6 hours) was “significant enhancement”. The “IL-10 production in response to the TLR-9 agonist CpG” value ([5]; TCT 10 μg/ml for 1, 6, 12 hours, CpG 10, 100, 1000 ng/ml for 12 hours) was “enhances”, the “IL-6 production in response to the TLR-4 agonist B. pertussis LPS” value ([5]; TCT 10 μg/ml for 1, 6, 12 hours, LPS 100, 1000, 10000 pg/ml for 12 hours) was “enhances” and the “IL-6 production in response to the TLR-2 agonist Pam-3Csk” value [5, 10] was “enhances”. The “IL-10 production in response to the TLR-2 agonist Pam-3Csk” value [5, 10] was “enhances”, the “IL-6 production by all the TLR agonists examined” value [5, 11] was “significantly enhanced” and the “IL-10 production by all the TLR agonists examined” value [5, 11] was “significantly enhanced”. For the same molecule, the “IL-12p40 production induced by LPS” value ([5]; TCT 10 μg/ml pre-treatment, B. pertussis LPS) was “significantly reduced”, the “IL-12p40 production induced by Pam-3Csk” value ([5]; TCT 10 μg/ml pre-treatment, Pam-3Csk) was “significantly reduced” and the “production of cytokines and chemokines examined” value ([5]; TCT alone (10 μg/ml), no TLR agonist) was “did not induce”.
